This note sets out measurements from US10787452B2 (Vertex Pharmaceuticals Incorporated, priority 2012, dated 2020).

The test has as its system HCT116 colorectal cancer cells. The test is described as follows: Cisplatin sensitization assay (96 h cell viability MTS).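 Also: compound concentration needed to lower the Cisplatin-alone IC50 by a set fold.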 Type of test: cell-based. To be noted: 96 h MTS, compound plus Cisplatin. The gist of the method:
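Full-matrix combination: compound × cisplatin, 2-fold dilutions from 10 μM top final, co-added; 96 h, 37° C, 5% CO2; MTS read-out after 1 h.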
As for `N#CCc1cnc2c(C(=O)Nc3cnccc3OC3COC3)c(N)nn2c1` [I-O-38, 2-amino-6-(cyanomethyl)-N-(4-(oxetan-3-yloxy)pyridin-3-yl)pyrazolo[1,5-a]pyrimidine-3-carboxamide], the “Cisplatin Sensitization Assay” value is on record as “+++ (Compounds with a Cisplatin sensitization value of <0.02 μM are marked with “+++.”)”.
The result for `N#CCc1cnc2c(C(=O)Nc3cnccc3OC3CCCCC3)c(N)nn2c1` [I-O-39, 2-amino-6-(cyanomethyl)-N-(4-(cyclohexyloxy)pyridin-3-yl)pyrazolo[1,5-a]pyrimidine-3-carboxamide] reads “+++ (Compounds with a Cisplatin sensitization value of <0.02 μM are marked with “+++.”)”; that for `N#CCc1cnc2c(C(=O)Nc3cnccc3OCCCO)c(N)nn2c1` [I-O-40, 2-amino-6-(cyanomethyl)-N-(4-(3-hydroxypropoxy)pyridin-3-yl)pyrazolo[1,5-a]pyrimidine-3-carboxamide], “++ (Compounds with a Cisplatin sensitization value >0.02 μM but <0.2 μM are marked with “++.”)”; that for `N#CCc1cnc2c(C(=O)Nc3cnccc3OC3CCCOC3)c(N)nn2c1` (stereo not shown) [I-O-41, 2-amino-6-(cyanomethyl)-N-(4-((tetrahydro-2H-pyran-3-yl)oxy)pyridin-3-yl)pyrazolo[1,5-a]pyrimidine-3-carboxamide], “+++ (Compounds with a Cisplatin sensitization value of <0.02 μM are marked with “+++.”)”.
In the case of `N#CCc1cnc2c(C(=O)Nc3cnccc3O[C@H]3CCOC3)c(N)nn2c1` [I-O-42, (S)-2-amino-6-(cyanomethyl)-N-(4-((tetrahydrofuran-3-yl)oxy)pyridin-3-yl)pyrazolo[1,5-a]pyrimidine-3-carboxamide], the “Cisplatin Sensitization Assay” value is “+++ (Compounds with a Cisplatin sensitization value of <0.02 μM are marked with “+++.”)”.
The entry for `N#CCc1cnc2c(C(=O)Nc3cnccc3OC3CCCC3)c(N)nn2c1` [I-O-43, 2-amino-6-(cyanomethyl)-N-(4-(cyclopentyloxy)pyridin-3-yl)pyrazolo[1,5-a]pyrimidine-3-carboxamide] is “+++ (Compounds with a Cisplatin sensitization value of <0.02 μM are marked with “+++.”)”; for `Nc1nn2cc(F)cnc2c1C(=O)Nc1cnccc1OC1CC[S+]([O-])CC1` (stereo not shown) [I-O-44, 2-amino-6-fluoro-N-(4-((1-oxidotetrahydro-2H-thiopyran-4-yl)oxy)pyridin-3-yl)pyrazolo[1,5-a]pyrimidine-3-carboxamide] it is “++ (Compounds with a Cisplatin sensitization value >0.02 μM but <0.2 μM are marked with “++.”)”; for `Nc1nn2cc(F)cnc2c1C(=O)Nc1cnccc1OC1CCS(=O)(=O)CC1` [I-O-45, 2-amino-N-(4-((1,1-dioxidotetrahydro-2H-thiopyran-4-yl)oxy)pyridin-3-yl)-6-fluoropyrazolo[1,5-a]pyrimidine-3-carboxamide] it is “+++ (Compounds with a Cisplatin sensitization value of <0.02 μM are marked with “+++.”)”.
Take `CN1CCC(Oc2c(Cl)cncc2NC(=O)c2c(N)nn3cc(Cl)cnc23)CC1` [I-O-46, 2-amino-6-chloro-N-(5-chloro-4-((1-methylpiperidin-4-yl)oxy)pyridin-3-yl)pyrazolo[1,5-a]pyrimidine-3-carboxamide]: the “Cisplatin Sensitization Assay” value was “+ (Compounds with a Cisplatin sensitization value >0.2 μM but <5 μM are marked with “+.”)”.
The entry for `CN(C)CCOCCOc1ccncc1NC(=O)c1c(N)nn2cc(Cl)cnc12` [I-O-47, 2-amino-6-chloro-N-(4-(2-(2-(dimethylamino)ethoxy)ethoxy)pyridin-3-yl)pyrazolo[1,5-a]pyrimidine-3-carboxamide] is “+ (Compounds with a Cisplatin sensitization value >0.2 μM but <5 μM are marked with “+.”)”; for `CN(C)CCOc1ccncc1NC(=O)c1c(N)nn2cc(Cl)cnc12` [I-O-48, 2-amino-6-chloro-N-(4-(2-(dimethylamino)ethoxy)pyridin-3-yl)pyrazolo[1,5-a]pyrimidine-3-carboxamide] it is “++ (Compounds with a Cisplatin sensitization value >0.02 μM but <0.2 μM are marked with “++.”)”; for `CN1CCC[C@@H]1COc1ccncc1NC(=O)c1c(N)nn2cc(Cl)cnc12` [I-O-49, (R)-2-amino-6-chloro-N-(4-((1-methylpyrrolidin-2-yl)methoxy)pyridin-3-yl)pyrazolo[1,5-a]pyrimidine-3-carboxamide] it is “+ (Compounds with a Cisplatin sensitization value >0.2 μM but <5 μM are marked with “+.”)”.
The result for `CN1CCC[C@H]1COc1ccncc1NC(=O)c1c(N)nn2cc(Cl)cnc12` [I-O-50, (S)-2-amino-6-chloro-N-(4-((1-methylpyrrolidin-2-yl)methoxy)pyridin-3-yl)pyrazolo[1,5-a]pyrimidine-3-carboxamide] reads “+ (Compounds with a Cisplatin sensitization value >0.2 μM but <5 μM are marked with “+.”)”.
`CN(C)CCCOc1ccncc1NC(=O)c1c(N)nn2cc(Cl)cnc12` [I-O-52, 2-amino-6-chloro-N-(4-(3-(dimethylamino)propoxy)pyridin-3-yl)pyrazolo[1,5-a]pyrimidine-3-carboxamide]: the “Cisplatin Sensitization Assay” value is reported as “+ (Compounds with a Cisplatin sensitization value >0.2 μM but <5 μM are marked with “+.”)”.
The result for `Nc1nn2cc(Cl)cnc2c1C(=O)Nc1cnccc1OCCCO` [I-O-53, 2-amino-6-chloro-N-(4-(3-hydroxypropoxy)pyridin-3-yl)pyrazolo[1,5-a]pyrimidine-3-carboxamide] reads “+++ (Compounds with a Cisplatin sensitization value of <0.02 μM are marked with “+++.”)”; that for `COCCOc1ccncc1NC(=O)c1c(N)nn2cc(Cl)cnc12` [I-O-55, 2-amino-6-chloro-N-(4-(2-methoxyethoxy)pyridin-3-yl)pyrazolo[1,5-a]pyrimidine-3-carboxamide], “++ (Compounds with a Cisplatin sensitization value >0.02 μM but <0.2 μM are marked with “++.”)”; that for `CCOc1ccncc1NC(=O)c1c(N)nn2cc(Cl)cnc12` [I-O-56, 2-amino-6-chloro-N-(4-ethoxypyridin-3-yl)pyrazolo[1,5-a]pyrimidine-3-carboxamide], “+++ (Compounds with a Cisplatin sensitization value of <0.02 μM are marked with “+++.”)”.
The result for `COc1ccncc1NC(=O)c1c(N)nn2cc(Cl)cnc12` [I-O-57, 2-amino-6-chloro-N-(4-methoxypyridin-3-yl)pyrazolo[1,5-a]pyrimidine-3-carboxamide] reads “+++ (Compounds with a Cisplatin sensitization value of <0.02 μM are marked with “+++.”)”; that for `Nc1nn2cc(Cl)cnc2c1C(=O)Nc1cnccc1O[C@H]1CCOC1` [I-O-58, (S)-2-amino-6-chloro-N-(4-((tetrahydrofuran-3-yl)oxy)pyridin-3-yl)pyrazolo[1,5-a]pyrimidine-3-carboxamide], “+++ (Compounds with a Cisplatin sensitization value of <0.02 μM are marked with “+++.”)”; that for `Nc1nn2cc(Cl)cnc2c1C(=O)Nc1cnccc1OCC(F)(F)F` [I-O-59, 2-amino-6-chloro-N-(4-(2,2,2-trifluoroethoxy)pyridin-3-yl)pyrazolo[1,5-a]pyrimidine-3-carboxamide], “+++ (Compounds with a Cisplatin sensitization value of <0.02 μM are marked with “+++.”)”.
For the compound `Nc1nn2cc(Cl)cnc2c1C(=O)Nc1cnccc1OCCN1CCOCC1` [I-O-60, 2-amino-6-chloro-N-(4-(2-morpholinoethoxy)pyridin-3-yl)pyrazolo[1,5-a]pyrimidine-3-carboxamide], the “Cisplatin Sensitization Assay” value is listed as “++ (Compounds with a Cisplatin sensitization value >0.02 μM but <0.2 μM are marked with “++.”)”.
The entry for `Nc1nn2cc(Cl)cnc2c1C(=O)Nc1cnccc1OC1CCOCC1` [I-O-61, 2-amino-6-chloro-N-(4-((tetrahydro-2H-pyran-4-yl)oxy)pyridin-3-yl)pyrazolo[1,5-a]pyrimidine-3-carboxamide] is “+++ (Compounds with a Cisplatin sensitization value of <0.02 μM are marked with “+++.”)”; for `Nc1nn2cc(Cl)cnc2c1C(=O)Nc1cnccc1OC1CN2CCC1CC2` (stereo not shown) [I-O-62, 2-amino-6-chloro-N-(4-(quinuclidin-3-yloxy)pyridin-3-yl)pyrazolo[1,5-a]pyrimidine-3-carboxamide] it is “+++ (Compounds with a Cisplatin sensitization value of <0.02 μM are marked with “+++.”)”.
The result for `CN1CC[C@@H](Oc2ccncc2NC(=O)c2c(N)nn3cc(Cl)cnc23)C1` [I-O-63, (R)-2-amino-6-chloro-N-(4-((1-methylpyrrolidin-3-yl)oxy)pyridin-3-yl)pyrazolo[1,5-a]pyrimidine-3-carboxamide] reads “++ (Compounds with a Cisplatin sensitization value >0.02 μM but <0.2 μM are marked with “++.”)”; that for `CN1CCC(Oc2ccncc2NC(=O)c2c(N)nn3cc(Cl)cnc23)CC1` [I-O-64, 2-amino-6-chloro-N-(4-((1-methylpiperidin-4-yl)oxy)pyridin-3-yl)pyrazolo[1,5-a]pyrimidine-3-carboxamide], “+++ (Compounds with a Cisplatin sensitization value of <0.02 μM are marked with “+++.”)”; that for `Nc1nn2cc(Cl)cnc2c1C(=O)Nc1cnccc1OC1CCCOC1` (stereo not shown) [I-O-65, 2-amino-6-chloro-N-(4-((tetrahydro-2H-pyran-3-yl)oxy)pyridin-3-yl)pyrazolo[1,5-a]pyrimidine-3-carboxamide], “+++ (Compounds with a Cisplatin sensitization value of <0.02 μM are marked with “+++.”)”.
The result for `Nc1nn2cc(Cl)cnc2c1C(=O)Nc1cnccc1OCCO` [I-O-66, 2-amino-6-chloro-N-(4-(2-hydroxyethoxy)pyridin-3-yl)pyrazolo[1,5-a]pyrimidine-3-carboxamide] reads “+ (Compounds with a Cisplatin sensitization value >0.2 μM but <5 μM are marked with “+.”)”.
Turning to `COCCN1CCC[C@H](Oc2ccncc2NC(=O)c2c(N)nn3cc(Cl)cnc23)C1` [I-O-67, (S)-2-amino-6-chloro-N-(4-((1-(2-methoxyethyl)piperidin-3-yl)oxy)pyridin-3-yl)pyrazolo[1,5-a]pyrimidine-3-carboxamide], the “Cisplatin Sensitization Assay” value is given as “++ (Compounds with a Cisplatin sensitization value >0.02 μM but <0.2 μM are marked with “++.”)”.
